The subject of the experiment is CD2F1 mice, L1210 leukemia ip, survival T/C. The experiment can be described thus: NCI In Vivo Anticancer Drug Screen. Data for tumor model L1210 Leukemia (intraperitoneal) in CD2F1 (CDF1) mice. The conditions noted are these: higher = longer survival. The method in brief:
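Implant tumor; dose compound or vehicle; measure endpoint in both groups; report treated divided by control.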

Setting [1] is: endpoint: mean survival time, dose: 100.0 mg/kg/injection, schedule: Q01DX009 (ip), vehicle: saline with Tween-80.
Where [2] appears, read: endpoint: mean survival time, dose: 200.0 mg/kg/injection, schedule: Q01DX009 (ip), vehicle: saline with Tween-80.
Where [3] appears, read: endpoint: mean survival time, dose: 75.0 mg/kg/injection, schedule: Q01DX001 (ip), vehicle: other.
[4] abbreviates: endpoint: mean survival time, dose: 150.0 mg/kg/injection, schedule: Q01DX001 (ip), vehicle: other.

Inconclusive results and toxic doses are left out.

On to `COc1ccc(/C=N/NC(=O)CNC(=O)Nc2ccc(F)cc2)cc1OC`, for which the T/C (endpoint: mean survival time, dose: 50.0 mg/kg/injection, schedule: Q01DX009 (ip), vehicle: saline with Tween-80) was 96 % of control; the T/C under setting [1] was 92 % of control; the T/C under setting [2] is 92 % of control.

As for `O=S1(=O)OCCC1C(O)(c1ccccc1)c1ccccc1` (stereo unspecified), the T/C by setting is: (endpoint: mean survival time, dose: 75.0 mg/kg/injection, schedule: Q01DX009 (ip), vehicle: saline) 97 % of control; (endpoint: mean survival time, dose: 75.0 mg/kg/injection, schedule: Q04DX003 (ip), vehicle: saline) 100 % of control; (endpoint: mean survival time, dose: 150.0 mg/kg/injection, schedule: Q01DX009 (ip), vehicle: saline) 103 % of control; (endpoint: mean survival time, dose: 150.0 mg/kg/injection, schedule: Q04DX003 (ip), vehicle: saline) 97 % of control; (endpoint: mean survival time, dose: 300.0 mg/kg/injection, schedule: Q01DX009 (ip), vehicle: saline) 100 % of control; (endpoint: mean survival time, dose: 300.0 mg/kg/injection, schedule: Q04DX003 (ip), vehicle: saline) 97 % of control.

With `CN(C)[C-]=O.[C-]#[O+].[C-]#[O+].[Fe+6].[c-]1[c-][c-][cH-][c-]1`, the T/C by setting is: under setting [3], 94 % of control; under setting [4], 88 % of control.

Consider `Nc1ccc(S(=O)(=O)c2ccc(N3CCOCC3)c(N)c2)cc1`, for which the T/C was 105 % of control (endpoint: mean survival time, dose: 100.0 mg/kg/injection, schedule: Q04DX002 (ip), vehicle: saline with Tween-80); 94 % of control (endpoint: mean survival time, dose: 200.0 mg/kg/injection, schedule: Q04DX002 (ip), vehicle: saline with Tween-80); 97 % of control (endpoint: mean survival time, dose: 400.0 mg/kg/injection, schedule: Q04DX002 (ip), vehicle: saline with Tween-80).

In the case of `Cc1ccc(C)c(NC(=O)NCc2ccccc2)c1`, the T/C is 97 % of control under setting [1] and 106 % of control under setting [2].

As to `CC(N)C(=O)NC(CO)C(=O)O` (stereo unspecified), the T/C is, setting by setting: (endpoint: mean survival time, dose: 100.0 mg/kg/injection, schedule: Q01DX009 (ip), vehicle: saline) 103 % of control; (endpoint: mean survival time, dose: 100.0 mg/kg/injection, schedule: Q04DX003 (ip), vehicle: saline) 97 % of control; (endpoint: mean survival time, dose: 200.0 mg/kg/injection, schedule: Q01DX009 (ip), vehicle: saline) 95 % of control; (endpoint: mean survival time, dose: 200.0 mg/kg/injection, schedule: Q04DX003 (ip), vehicle: saline) 93 % of control; (endpoint: mean survival time, dose: 400.0 mg/kg/injection, schedule: Q01DX009 (ip), vehicle: saline) 97 % of control; (endpoint: mean survival time, dose: 400.0 mg/kg/injection, schedule: Q04DX003 (ip), vehicle: saline) 93 % of control.

`C=C1CC2(CCC23COC(=O)C3=C)OC1=O` (stereo unspecified): the T/C (endpoint: mean survival time, dose: 0.78 mg/kg/injection, schedule: Q01DX009 (ip), vehicle: other) is 107 % of control; the T/C (endpoint: mean survival time, dose: 0.78 mg/kg/injection, schedule: Q04DX002 (ip), vehicle: other) was 100 % of control; the T/C (endpoint: mean survival time, dose: 0.78 mg/kg/injection, schedule: Q04DX003 (ip), vehicle: other) is 100 % of control; the T/C (endpoint: mean survival time, dose: 1.56 mg/kg/injection, schedule: Q01DX009 (ip), vehicle: other) is 102 % of control; the T/C (endpoint: mean survival time, dose: 1.56 mg/kg/injection, schedule: Q04DX002 (ip), vehicle: other) was 105 % of control; the T/C (endpoint: mean survival time, dose: 1.56 mg/kg/injection, schedule: Q04DX003 (ip), vehicle: other) was 108 % of control. The T/C was 95 % of control (endpoint: mean survival time, dose: 3.12 mg/kg/injection, schedule: Q01DX009 (ip), vehicle: other); 105 % of control (endpoint: mean survival time, dose: 3.12 mg/kg/injection, schedule: Q04DX002 (ip), vehicle: other); 102 % of control (endpoint: mean survival time, dose: 3.12 mg/kg/injection, schedule: Q04DX003 (ip), vehicle: other); 107 % of control (endpoint: mean survival time, dose: 6.25 mg/kg/injection, schedule: Q01DX009 (ip), vehicle: other); 109 % of control (endpoint: mean survival time, dose: 6.25 mg/kg/injection, schedule: Q04DX002 (ip), vehicle: other); 105 % of control (endpoint: mean survival time, dose: 6.25 mg/kg/injection, schedule: Q04DX003 (ip), vehicle: other). For the same compound, the T/C (endpoint: mean survival time, dose: 12.5 mg/kg/injection, schedule: Q01DX001 (ip), vehicle: other) was 107 % of control.

Turning to `COc1ccc(NC(=O)Nc2c(C)n(C)n(-c3ccccc3)c2=O)c(Cl)c1`, the T/C (endpoint: mean survival time, dose: 50.0 mg/kg/injection, schedule: Q01DX009 (ip), vehicle: Klucel (hydroxypropylcellulose) (HPC)) was 95 % of control; the T/C (endpoint: mean survival time, dose: 100.0 mg/kg/injection, schedule: Q01DX009 (ip), vehicle: Klucel (hydroxypropylcellulose) (HPC)) is 95 % of control; the T/C (endpoint: mean survival time, dose: 100.0 mg/kg/injection, schedule: Q04DX003 (ip), vehicle: Klucel (hydroxypropylcellulose) (HPC)) was 104 % of control; the T/C (endpoint: mean survival time, dose: 200.0 mg/kg/injection, schedule: Q01DX009 (ip), vehicle: Klucel (hydroxypropylcellulose) (HPC)) was 95 % of control; the T/C (endpoint: mean survival time, dose: 200.0 mg/kg/injection, schedule: Q04DX003 (ip), vehicle: Klucel (hydroxypropylcellulose) (HPC)) was 104 % of control; the T/C (endpoint: mean survival time, dose: 400.0 mg/kg/injection, schedule: Q04DX003 (ip), vehicle: Klucel (hydroxypropylcellulose) (HPC)) is 104 % of control.

For `COC(=O)c1cc([N+](=O)[O-])c(Sc2ncnc3nc[nH]c23)c([N+](=O)[O-])c1`, the T/C is 103 % of control (endpoint: mean survival time, dose: 11.0 mg/kg/injection, schedule: Q01DX005 (ip), vehicle: other); 110 % of control (endpoint: mean survival time, dose: 12.5 mg/kg/injection, schedule: Q01DX005 (ip), vehicle: other); 124 % of control (endpoint: mean survival time, dose: 16.5 mg/kg/injection, schedule: Q01DX005 (ip), vehicle: other); 95 % of control (endpoint: mean survival time, dose: 25.0 mg/kg/injection, schedule: Q01DX005 (ip), vehicle: other); 115 % of control (endpoint: mean survival time, dose: 50.0 mg/kg/injection, schedule: Q01DX005 (ip), vehicle: other).

With `NC(Cc1ccc(N(CCCl)CCCl)cc1)C(=O)O` (stereo unspecified), the T/C is, setting by setting: (endpoint: mean survival time, dose: 5.0 mg/kg/injection, schedule: Q01DX009 (ip), vehicle: Klucel (hydroxypropylcellulose) (HPC)) 106 % of control; (endpoint: mean survival time, dose: 5.0 mg/kg/injection, schedule: Q01DX009 (ip), vehicle: saline with Tween-80) 121 % of control; (endpoint: mean survival time, dose: 6.4 mg/kg/injection, schedule: Q01DX001 (ip), vehicle: water) 104 % of control; (endpoint: mean survival time, dose: 6.4 mg/kg/injection, schedule: Q11HX001 (ip), vehicle: water) 104 % of control; (endpoint: mean survival time, dose: 8.0 mg/kg/injection, schedule: Q01DX001 (ip), vehicle: water) 101 % of control; (endpoint: mean survival time, dose: 8.0 mg/kg/injection, schedule: Q11HX001 (ip), vehicle: water) 101 % of control. Further, the T/C is, setting by setting: (endpoint: mean survival time, dose: 10.0 mg/kg/injection, schedule: Q01DX001 (ip), vehicle: water) 105 % of control; (endpoint: mean survival time, dose: 10.0 mg/kg/injection, schedule: Q01DX009 (ip), vehicle: Klucel (hydroxypropylcellulose) (HPC)) 105 % of control; (endpoint: mean survival time, dose: 10.0 mg/kg/injection, schedule: Q01DX009 (ip), vehicle: saline with Tween-80) 113 % of control; (endpoint: mean survival time, dose: 10.0 mg/kg/injection, schedule: Q03DX003 (ip), vehicle: Klucel (hydroxypropylcellulose) (HPC)) 183 % of control; (endpoint: mean survival time, dose: 10.0 mg/kg/injection, schedule: Q04DX003 (ip), vehicle: Klucel (hydroxypropylcellulose) (HPC)) 168 % of control; (endpoint: mean survival time, dose: 10.0 mg/kg/injection, schedule: Q11HX001 (ip), vehicle: water) 105 % of control. The T/C (endpoint: mean survival time, dose: 12.5 mg/kg/injection, schedule: Q01DX001 (ip), vehicle: water) is 104 % of control; the T/C (endpoint: mean survival time, dose: 12.5 mg/kg/injection, schedule: Q11HX001 (ip), vehicle: water) is 104 % of control; the T/C (endpoint: mean survival time, dose: 20.0 mg/kg/injection, schedule: Q01DX007 (ip), vehicle: Klucel (hydroxypropylcellulose) (HPC)) was 94 % of control; the T/C (endpoint: mean survival time, dose: 20.0 mg/kg/injection, schedule: Q01DX007 (ip), vehicle: saline with Tween-80) was 113 % of control; the T/C (endpoint: mean survival time, dose: 20.0 mg/kg/injection, schedule: Q01DX009 (ip), vehicle: Klucel (hydroxypropylcellulose) (HPC)) was 86 % of control; the T/C (endpoint: mean survival time, dose: 20.0 mg/kg/injection, schedule: Q01DX009 (ip), vehicle: saline with Tween-80) was 100 % of control. For the same compound, the T/C runs as follows: (endpoint: mean survival time, dose: 20.0 mg/kg/injection, schedule: Q04DX003 (ip), vehicle: Klucel (hydroxypropylcellulose) (HPC)) 186 % of control; (endpoint: median survival time, dose: 4.0 mg/kg/injection, schedule: Q01DX009 (ip), vehicle: saline) 183 % of control; (endpoint: median survival time, dose: 8.0 mg/kg/injection, schedule: Q01DX009 (ip), vehicle: saline) 155 % of control; (endpoint: median survival time, dose: 16.0 mg/kg/injection, schedule: Q01DX009 (ip), vehicle: saline) 88 % of control.

Turning to `O=Cc1ccc(O)c2ncccc12`, the T/C by setting is: under setting [3], 101 % of control; under setting [4], 95 % of control; (endpoint: mean survival time, dose: 300.0 mg/kg/injection, schedule: Q01DX001 (ip), vehicle: other) 110 % of control.

Source of the values: PubChem BioAssay AID256 (DTP/NCI, 2004).
